Earlier results in patent publication US20220039380A1, “PEST CONTROL INCLUDING COMBINED MATING DISRUPTION AND TRAPPING” (Trécé Inc., priority 2019, published 2022).
Where two headings read alike, the source gives them in different places.

Key:
[1] = system: Peach Twig Borer (PTB) Anarsia lineatella; settings: pheromone synergists, field demonstrated
[2] = system: Corn Earworm (CEW) Helocoverpa zea; settings: for % increase in Male capture above pheromone alone: pheromone synergists, field demonstrated
[3] = system: Codling Moth (CM) Cydia pomonella; settings: kairomone attractants without pheromone, field demonstrated, Male Lures
[4] = system: Oriental Fruit Moth (OFM) Grapholita molesta; settings: for % increase in Male capture above pheromone alone: pheromone synergists, field demonstrated
[5] = system: Codling Moth (CM) Cydia pomonella; settings: pheromone synergists, suggested (lab flight tunnel demonstrated)
[6] = system: Cabbage Looper (CL) Tricoplusia ni; settings: pheromone synergists, field demonstrated
[7] = system: Codling Moth (CM) Cydia pomonella; settings: pheromone synergists, proven (field demonstrated)
[8] = system: Beet Armyworm (BAW) Spodoptera exigua; settings: Field & Flight Tunnel
[9] = system: Beet Armyworm (BAW) Spodoptera exigua; settings: pheromone synergists, field demonstrated
[10] = system: Omnivorous Leafroller (OLR) Platynota stultana; settings: pheromone synergists, field demonstrated
[11] = system: Tobacco Budworm (TBW) Heliothis virescens; settings: pheromone synergists, field demonstrated
[12] = system: Codling Moth (CM) Cydia pomonella; settings: for HPVs Reduce/Inhibit Pear Ester Attraction: Females Attraction: codling moth females
[13] = codling moth, added to Ethyl (2,4)(E,Z) decadienoate

C=C/C=C(\C)CCC=C(C)C
% increase in Male capture above pheromone alone [1]: dimethyl nonatriene (134%)
% increase in Male capture above pheromone alone [2]: dimethyl nonatriene (357%)
Male lure attraction (in words) [3]: dimethyl nonatriene (less females)
% increase in Male capture above pheromone alone [4]: dimethyl nonatriene (427%)

C=CC(C)(O)CCC=C(C)C (racemic) [(±) linalool]
Pheromone synergism [5]: (±) linalool (162%)

CCC(C)C=NO (centres unmarked) [2-methyl butanal oxime]
% increase in Male capture above pheromone alone [6]: 2-methyl butanal oxime (196%)
% increase in Male capture above pheromone alone [2]: 2-methyl butanal oxime (196%)

OCCc1ccccc1 [2-phenylethanol]
% increase in Male capture above pheromone alone [6]: 2-phenylethanol (131%)

CC(C)CCO [3-methyl butanol]
% increase in Male capture above pheromone alone [7]: 3-methyl butanol (184%)

CCC/C=C/C=O [(E)-2-hexenal]
% increase in Male capture above pheromone alone [8]: (E)-2-hexenal (139%)
% increase in Male capture above pheromone alone [2]: (E)-2-hexenal (176%)
% increase in Male capture above pheromone alone [9]: (E)-2-hexenal (123%)

CCC/C=C/CO [(E)-2-hexenol]
% increase in Male capture above pheromone alone [6]: (E)-2-hexenol (112%)
% increase in Male capture above pheromone alone [1]: (E)-2-hexenol (131%)
Pheromone synergism [10]: (E)-2-hexenol (204%)

CCC/C=C/COC(C)=O [(E)-2-hexenyl acetate]
% increase in Male capture above pheromone alone [2]: (E)-2-hexenyl acetate (190%)
% increase in Male capture above pheromone alone [4]: (E)-2-hexenyl acetate (210%)
% increase in Male capture above pheromone alone [11]: (E)-2-hexenyl acetate (183%)

C=C1CC/C=C(\C)CC[C@@H]2[C@@H]1CC2(C)C [(E)-beta-caryophyllene]
% increase in Male capture above pheromone alone [2]: (E)-beta-caryophyllene (344%)
% increase in Male capture above pheromone alone [4]: (E)-beta-caryophyllene (147%)

C=C/C(C)=C/CC=C(C)C [(E)-beta-ocimene]
% increase in Male capture above pheromone alone [2]: (E)-beta-ocimene (141%)
% increase in Male capture above pheromone alone [7]: (E)-beta-ocimene (170%)

C=CC(C)(O)CC/C=C(\C)CCC=C(C)C (centres unmarked) [(E)-nerolidol]
% increase in Male capture above pheromone alone [2]: (E)-nerolidol (193%)

C=C/C(C)=C/C/C=C(\C)CCC=C(C)C [(E,E)-alpha-farnesene]
% increase in Male capture above pheromone alone [1]: (E,E)-alpha-farnesene (144%)
HPVs Reduce/Inhibit Pear Ester Attraction [12, 13]: (E,E)-alpha-farnesene (−68%)

CC1=CC[C@@H]2C[C@H]1C2(C)C [(R)-(+)-alpha-pinene]
% increase in Male capture above pheromone alone [2]: (R)-(+)-alpha-pinene (348%)

CC1=CC[C@H]2C[C@@H]1C2(C)C [(S)-(−)-alpha-pinene]
% increase in Male capture above pheromone alone [2]: (S)-(−)-alpha-pinene (215%)

CC/C=C\CCO [(Z)-3-hexenol]
% increase in Male capture above pheromone alone [6]: (Z)-3-hexenol (152%)
% increase in Male capture above pheromone alone [8]: (Z)-3-hexenol (121%)
% increase in Male capture above pheromone alone [1]: (Z)-3-hexenol (117%)
Pheromone synergism [10]: (Z)-3-hexenol (193%)
% increase in Male capture above pheromone alone [2]: (Z)-3-hexenol (128%)

CC/C=C\CCOC(C)=O [(Z)-3-hexenyl acetate]
% increase in Male capture above pheromone alone [8]: (Z)-3-hexenyl acetate (125%)
% increase in Male capture above pheromone alone [1]: (Z)-3-hexenyl acetate (143%)
HPVs Enhance Pear Ester Attraction (in words) [12, 13]: (Z)-3-hexenyl acetate (additive)
% increase in Male capture above pheromone alone [4]: (Z)-3-hexenyl acetate (258%)
% increase in Male capture above pheromone alone [11]: (Z)-3-hexenyl acetate (217%)
Pheromone synergism [5]: (Z)-3-hexenyl acetate (151%)

C=C/C(C)=C/C/C=C(/C)CCC=C(C)C [(Z,E)-alpha-farnesene]
HPVs Reduce/Inhibit Pear Ester Attraction: Females Attraction [12]: (Z,E)-alpha-farnesene (−87%)

CC(C)=CCC[C@]1(C)[C@H]2CC=C(C)[C@@H]1C2 [alpha-(E)-bergamotene]
% increase in Male capture above pheromone alone [2]: alpha-(E)-bergamotene (285%)

CC1=CC[C@H](C(C)C)C=C1 [alpha-phellandrene]
% increase in Male capture above pheromone alone [2]: alpha-phellandrene (152%)

O=Cc1ccccc1 [benzaldehyde]
Pheromone Antagonists [4]: benzaldehyde (68%)

C=C1C=CC(C(C)C)CC1 (stereo not drawn) [beta-phellandrene]
% increase in Male capture above pheromone alone [2]: beta-phellandrene (342%)

CCCCCC(=O)OCCCC [butyl hexanoate]
HPVs Reduce/Inhibit Pear Ester Attraction [12, 13]: butyl hexanoate (−45%)

CC(C)=CCCC(C)=CCCC(C)=CCO [farnesol]
HPVs Reduce/Inhibit Pear Ester Attraction [12, 13]: farnesol (−56%)

CC1=CCC(C(C)C)=CC1 [gamma-terpinene]
% increase in Male capture above pheromone alone [7]: gamma-terpinene (131%)

CCCCCC(C)O (centres unmarked) [heptan-2-ol]
% increase in Male capture above pheromone alone [2]: heptan-2-ol (283%)

CCCCCC=O [hexanal]
% increase in Male capture above pheromone alone [2]: hexanal (237%)
% increase in Male capture above pheromone alone [9]: hexanal (107%)

CCCCCCO [hexanol]
% increase in Male capture above pheromone alone [6]: hexanol (132%)

CCCCCCOC(C)=O [hexyl acetate]
% increase in Male capture above pheromone alone [2]: hexyl acetate (176%)
% increase in Male capture above pheromone alone [4]: hexyl acetate (159%)

C/C1=C\CC/C(C)=C/CC(C)(C)/C=C/C1 [humulene]
% increase in Male capture above pheromone alone [2]: humulene (220%)

C=C(C)[C@H]1CC=C(C)CC1 [limonene]
% increase in Male capture above pheromone alone [1]: limonene (132%)
% increase in Male capture above pheromone alone [2]: limonene (150%)

CC/C=C\CC1C(=O)CCC1CC(=O)OC (centres unmarked) [methyl jasmonate]
% increase in Male capture above pheromone alone [2]: methyl jasmonate (255%)

CCCCCCCC(=O)OC [methyl octanoate]
% increase in Male capture above pheromone alone [1]: methyl octanoate (172%)

COC(=O)c1ccccc1O [methyl salicylate]
% increase in Male capture above pheromone alone [2]: methyl salicylate (172%)

C=CC(=C)CCC=C(C)C [myrcene]
% increase in Male capture above pheromone alone [7]: myrcene (190%)

CCCCCCCCC=O [nonanal]
% increase in Male capture above pheromone alone [2]: nonanal (219%)
HPVs Reduce/Inhibit Pear Ester Attraction: Females Attraction [12]: nonanal (−95%)

Cc1ccc(C(C)C)cc1 [para-cymene]
% increase in Male capture above pheromone alone [7]: para-cymene (187%)

O=CCc1ccccc1 [phenyl acetaldehyde]
% increase in Male capture above pheromone alone [6]: phenyl acetaldehyde (188%)
% increase in Male capture above pheromone alone [8]: phenylacetaldehyde (135%)
Blossom Volatiles, Gaura Volatiles, repeated below the heading Pheromone Antagonists [2]: phenyl acetaldehyde (216%)
% increase in Male capture above pheromone alone [2]: phenyl acetaldehyde (216%)

CC1=CCC(O)(C(C)C)CC1 (centres unmarked) [terpinen-4-ol]
% increase in Male capture above pheromone alone [7]: terpinen-4-ol (206%)

butanol
% increase in Male capture above pheromone alone [7]: butanol (202%)
